Source: patent publication US20250025526A1, “COMBINATION THERAPY FOR THE TREATMENT OF FRIEDREICH'S ATAXIA” (Stealth BioTherapeutics Inc., priority 2023, published 2025)
Where a SMILES comes first, the peptide text is derived from it. [ ]: non-standard residue; d: D form. Dmt = Cc1cc(O)cc(C)c1C[C@H](N)C(=O)O

Key:
[1] = system: FA (GM03665; Coriell) fibroblasts; assay: Cytoprotection assay, RSL3-induced ferroptosis, FA fibroblasts (CellTiter-Glo cell viability); type: cell-based, human; conditions: FA patient derived fibroblasts; 18 hour pre-incubation with test compounds 0.001 uM to 1 uM; then 0.5 uM RSL3 for 4 hours; FIG. 2
Experimental: (§1) To initiate the cytoprotection experiment, healthy (GM08402; Coriell) and FA (GM03665; Coriell) fibroblasts were resuspended in assay medium (Minimum Essential Medium Eagle w/Earles Salts and L-glutamine (MEM; Corning)+15% Qualified Fetal Bovine Serum (FBS)+penicillin (100 U)/streptomycin ([…]), seeded at 10,000 cells per well in a clear, tissue cultured treated 96 well plate), and incubated at 37° C. Eight hours later, the assay medium was manually removed and test compounds, elamipretide (Stealth Biotherapeutics Inc., Needham, MA) and omaveloxolone were added to a final volume of 100 uL at concentrations ranging between 0.001 uM and 1 uM. Following an 18 hour incubation at 37° C., the assay medium was again manually removed. Healthy fibroblasts and FA fibroblasts were then treated with 100 μL of 1 uM and 0.5 uM RSL3 (Sigma, Catalog #1219810), respectively, in assay medium for 4 hours at 37° C. Cell viability was assessed with CellTiter-Glo Luminescent Cell Viability (Promega). Luminescence units were quantified by GEN5 software on a BioTek SYNERGY neo2 plate reader (LUM filter). The data obtained for the health cells are graphically illustrated in FIG. 1 and the data obtained for the FA fibroblasts are graphically illustrated in FIG. 2. […]

[2] = system: healthy (GM08402; Coriell) fibroblasts; assay: Cytoprotection assay, RSL3-induced ferroptosis, healthy fibroblasts (CellTiter-Glo cell viability); type: cell-based, human; conditions: healthy patient derived fibroblasts; 18 hour pre-incubation with test compounds 0.001 uM to 1 uM; then 1 uM RSL3 for 4 hours; FIG. 1
Experimental: as §1

Compound | protective/rescue effect on the RSL3 treated cells (cell viability) [1] | protective/rescue effect on the RSL3 treated cells (cell viability) [2]
Cc1cc(O)cc(C)c1C[C@H](NC(=O)[C@H](N)CCCNC(=N)N)C(=O)N[C@@H](CCCCN)C(=O)N[C@@H](Cc1ccccc1)C(N)=O [elamipretide, H-D-Arg-2′,6′Dmt-Lys-Phe-NH2] (H-[dR][Dmt]KF-NH2) | no apparent effect | no apparent effect
CC1(C)CC[C@]2(NC(=O)C(C)(F)F)CC[C@]3(C)[C@H](C(=O)C=C4[C@@]5(C)C=C(C#N)C(=O)C(C)(C)[C@@H]5CC[C@]43C)[C@@H]2C1 [omaveloxolone, Omaveloxolone] | significant protective/rescue effect | significant protective/rescue effect
